Assays:
[1] = biological target: Vascular endothelial growth factor receptor 2 (Homo sapiens, UniProt P35968); assay: Inhibitory activity towards vascular endothelial growth factor receptor 2
[2] = biological target: Proto-oncogene tyrosine-protein kinase Src (Homo sapiens) (UniProt P12931); assay: Selectivity for Src protein tyrosine kinase over (KDR) kinase insert domain receptor
[3] = biological target: Vascular endothelial growth factor receptor 1 (Homo sapiens) (UniProt P17948); assay: Selectivity for Vascular endothelial growth factor receptor 1 over (KDR) kinase insert domain receptor
[4] = biological target: Vascular endothelial growth factor receptor 3 (Homo sapiens) (UniProt P35916); assay: Selectivity for Vascular endothelial growth factor receptor 3 over (KDR) kinase insert domain receptor
[5] = biological target: Platelet-derived growth factor receptor beta (Homo sapiens) (UniProt P09619); assay: Selectivity for PDGFRbeta over (KDR) kinase insert domain receptor
[6] = biological target: Fibroblast growth factor receptor 2 (Homo sapiens) (UniProt P21802); assay: Selectivity for Fibroblast growth factor receptor 2 over (KDR) kinase insert domain receptor
[7] = biological target: Fibroblast growth factor receptor 1 (Homo sapiens) (UniProt P11362); assay: Selectivity for Fibroblast growth factor receptor 1 over (KDR) kinase insert domain receptor
Fibroblast growth factor receptor 1 (Homo sapiens), sequence (P11362 22-822 limits assumed): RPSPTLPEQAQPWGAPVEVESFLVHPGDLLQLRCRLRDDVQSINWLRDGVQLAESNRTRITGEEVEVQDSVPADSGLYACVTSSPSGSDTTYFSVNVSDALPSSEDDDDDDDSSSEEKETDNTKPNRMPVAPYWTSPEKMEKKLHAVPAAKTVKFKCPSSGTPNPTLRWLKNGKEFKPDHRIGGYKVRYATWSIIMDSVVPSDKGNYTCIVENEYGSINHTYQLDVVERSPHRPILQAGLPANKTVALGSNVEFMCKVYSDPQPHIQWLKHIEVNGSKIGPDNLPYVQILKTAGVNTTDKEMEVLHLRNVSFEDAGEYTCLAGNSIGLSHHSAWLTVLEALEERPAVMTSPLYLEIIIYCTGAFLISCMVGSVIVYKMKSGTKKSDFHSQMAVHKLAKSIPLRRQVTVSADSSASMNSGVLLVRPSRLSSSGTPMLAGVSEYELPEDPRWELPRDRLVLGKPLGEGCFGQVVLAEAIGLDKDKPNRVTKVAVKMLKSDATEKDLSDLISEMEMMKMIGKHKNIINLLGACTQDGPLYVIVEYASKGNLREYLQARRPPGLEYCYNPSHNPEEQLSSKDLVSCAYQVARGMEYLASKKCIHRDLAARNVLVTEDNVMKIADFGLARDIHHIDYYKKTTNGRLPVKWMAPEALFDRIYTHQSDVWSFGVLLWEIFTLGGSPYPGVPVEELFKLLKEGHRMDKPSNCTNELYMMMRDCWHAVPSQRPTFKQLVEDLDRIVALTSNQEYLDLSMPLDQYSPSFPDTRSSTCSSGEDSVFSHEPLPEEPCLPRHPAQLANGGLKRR

Proto-oncogene tyrosine-protein kinase Src (Homo sapiens), sequence (P12931 2-536 limits assumed): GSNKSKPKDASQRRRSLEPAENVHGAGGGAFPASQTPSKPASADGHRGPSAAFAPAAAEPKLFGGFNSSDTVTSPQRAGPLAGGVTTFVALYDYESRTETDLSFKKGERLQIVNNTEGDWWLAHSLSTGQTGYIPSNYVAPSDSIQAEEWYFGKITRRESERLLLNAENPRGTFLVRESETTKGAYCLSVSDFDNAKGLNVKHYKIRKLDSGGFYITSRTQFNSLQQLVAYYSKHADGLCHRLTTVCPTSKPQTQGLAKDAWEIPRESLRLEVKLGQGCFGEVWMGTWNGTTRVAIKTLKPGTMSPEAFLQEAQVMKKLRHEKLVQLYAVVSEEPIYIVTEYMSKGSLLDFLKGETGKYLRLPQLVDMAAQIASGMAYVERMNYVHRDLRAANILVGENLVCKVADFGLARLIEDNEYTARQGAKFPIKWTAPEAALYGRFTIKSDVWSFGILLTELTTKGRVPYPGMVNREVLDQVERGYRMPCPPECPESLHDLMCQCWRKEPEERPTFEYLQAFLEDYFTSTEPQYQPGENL
Fibroblast growth factor receptor 2 (Homo sapiens), sequence (P21802 22-821 limits assumed): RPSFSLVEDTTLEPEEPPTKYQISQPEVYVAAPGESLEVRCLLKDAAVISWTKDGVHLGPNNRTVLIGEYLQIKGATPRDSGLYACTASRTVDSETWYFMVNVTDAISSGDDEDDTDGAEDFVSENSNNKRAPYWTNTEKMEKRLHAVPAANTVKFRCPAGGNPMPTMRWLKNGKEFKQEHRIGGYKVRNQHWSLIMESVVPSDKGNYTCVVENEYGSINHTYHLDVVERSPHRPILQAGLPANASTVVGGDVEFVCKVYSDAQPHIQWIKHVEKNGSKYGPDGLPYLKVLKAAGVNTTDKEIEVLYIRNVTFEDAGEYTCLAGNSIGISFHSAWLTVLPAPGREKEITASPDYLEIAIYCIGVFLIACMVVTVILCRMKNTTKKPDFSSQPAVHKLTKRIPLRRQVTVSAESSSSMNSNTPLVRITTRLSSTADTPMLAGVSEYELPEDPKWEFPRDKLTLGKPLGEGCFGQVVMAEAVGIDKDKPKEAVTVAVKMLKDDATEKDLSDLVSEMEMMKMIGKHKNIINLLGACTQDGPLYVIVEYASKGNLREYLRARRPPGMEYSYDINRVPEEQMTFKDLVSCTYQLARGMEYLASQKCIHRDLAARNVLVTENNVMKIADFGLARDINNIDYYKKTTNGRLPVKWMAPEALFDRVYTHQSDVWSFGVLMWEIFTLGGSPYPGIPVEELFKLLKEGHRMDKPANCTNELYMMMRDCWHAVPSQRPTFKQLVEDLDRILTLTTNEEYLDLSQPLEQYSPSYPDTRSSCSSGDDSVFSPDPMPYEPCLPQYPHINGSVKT
Vascular endothelial growth factor receptor 3 (Homo sapiens), sequence (P35916 whole entry, the tested form may be a part): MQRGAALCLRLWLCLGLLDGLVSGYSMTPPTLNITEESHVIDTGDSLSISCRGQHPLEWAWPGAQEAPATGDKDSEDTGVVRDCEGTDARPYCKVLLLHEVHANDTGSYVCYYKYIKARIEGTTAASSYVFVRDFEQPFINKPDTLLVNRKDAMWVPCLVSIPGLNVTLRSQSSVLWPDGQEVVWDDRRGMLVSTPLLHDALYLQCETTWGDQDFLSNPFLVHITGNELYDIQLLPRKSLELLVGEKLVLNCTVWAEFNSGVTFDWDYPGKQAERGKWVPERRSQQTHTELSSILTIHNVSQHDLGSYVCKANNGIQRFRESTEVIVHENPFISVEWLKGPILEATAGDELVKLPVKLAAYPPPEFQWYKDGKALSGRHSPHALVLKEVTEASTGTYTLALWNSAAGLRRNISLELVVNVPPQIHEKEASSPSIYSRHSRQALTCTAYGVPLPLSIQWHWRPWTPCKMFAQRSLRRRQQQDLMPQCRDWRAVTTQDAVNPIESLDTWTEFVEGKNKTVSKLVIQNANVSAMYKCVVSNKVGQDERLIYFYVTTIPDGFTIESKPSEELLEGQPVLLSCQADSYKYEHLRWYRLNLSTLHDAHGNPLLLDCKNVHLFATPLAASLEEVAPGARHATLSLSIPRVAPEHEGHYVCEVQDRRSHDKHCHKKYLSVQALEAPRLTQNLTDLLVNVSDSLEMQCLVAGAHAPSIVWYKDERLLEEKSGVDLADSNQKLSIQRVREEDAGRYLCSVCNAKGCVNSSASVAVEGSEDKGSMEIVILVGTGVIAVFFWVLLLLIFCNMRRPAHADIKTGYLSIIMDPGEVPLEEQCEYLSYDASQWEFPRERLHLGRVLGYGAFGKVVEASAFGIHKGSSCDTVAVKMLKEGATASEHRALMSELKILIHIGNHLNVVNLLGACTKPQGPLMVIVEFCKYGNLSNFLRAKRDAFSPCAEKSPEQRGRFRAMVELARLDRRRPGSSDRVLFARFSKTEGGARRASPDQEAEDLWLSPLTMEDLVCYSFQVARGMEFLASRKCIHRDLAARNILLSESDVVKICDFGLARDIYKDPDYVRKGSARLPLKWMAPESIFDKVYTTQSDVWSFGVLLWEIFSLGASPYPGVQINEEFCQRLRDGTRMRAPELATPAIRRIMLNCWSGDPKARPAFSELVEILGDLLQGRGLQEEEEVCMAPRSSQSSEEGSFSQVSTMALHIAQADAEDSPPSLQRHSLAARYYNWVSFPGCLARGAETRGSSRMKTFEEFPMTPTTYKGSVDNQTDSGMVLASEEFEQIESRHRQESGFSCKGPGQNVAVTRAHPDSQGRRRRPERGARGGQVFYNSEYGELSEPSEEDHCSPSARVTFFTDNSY
Vascular endothelial growth factor receptor 1 (Homo sapiens), sequence (P17948 whole entry, the tested form may be a part): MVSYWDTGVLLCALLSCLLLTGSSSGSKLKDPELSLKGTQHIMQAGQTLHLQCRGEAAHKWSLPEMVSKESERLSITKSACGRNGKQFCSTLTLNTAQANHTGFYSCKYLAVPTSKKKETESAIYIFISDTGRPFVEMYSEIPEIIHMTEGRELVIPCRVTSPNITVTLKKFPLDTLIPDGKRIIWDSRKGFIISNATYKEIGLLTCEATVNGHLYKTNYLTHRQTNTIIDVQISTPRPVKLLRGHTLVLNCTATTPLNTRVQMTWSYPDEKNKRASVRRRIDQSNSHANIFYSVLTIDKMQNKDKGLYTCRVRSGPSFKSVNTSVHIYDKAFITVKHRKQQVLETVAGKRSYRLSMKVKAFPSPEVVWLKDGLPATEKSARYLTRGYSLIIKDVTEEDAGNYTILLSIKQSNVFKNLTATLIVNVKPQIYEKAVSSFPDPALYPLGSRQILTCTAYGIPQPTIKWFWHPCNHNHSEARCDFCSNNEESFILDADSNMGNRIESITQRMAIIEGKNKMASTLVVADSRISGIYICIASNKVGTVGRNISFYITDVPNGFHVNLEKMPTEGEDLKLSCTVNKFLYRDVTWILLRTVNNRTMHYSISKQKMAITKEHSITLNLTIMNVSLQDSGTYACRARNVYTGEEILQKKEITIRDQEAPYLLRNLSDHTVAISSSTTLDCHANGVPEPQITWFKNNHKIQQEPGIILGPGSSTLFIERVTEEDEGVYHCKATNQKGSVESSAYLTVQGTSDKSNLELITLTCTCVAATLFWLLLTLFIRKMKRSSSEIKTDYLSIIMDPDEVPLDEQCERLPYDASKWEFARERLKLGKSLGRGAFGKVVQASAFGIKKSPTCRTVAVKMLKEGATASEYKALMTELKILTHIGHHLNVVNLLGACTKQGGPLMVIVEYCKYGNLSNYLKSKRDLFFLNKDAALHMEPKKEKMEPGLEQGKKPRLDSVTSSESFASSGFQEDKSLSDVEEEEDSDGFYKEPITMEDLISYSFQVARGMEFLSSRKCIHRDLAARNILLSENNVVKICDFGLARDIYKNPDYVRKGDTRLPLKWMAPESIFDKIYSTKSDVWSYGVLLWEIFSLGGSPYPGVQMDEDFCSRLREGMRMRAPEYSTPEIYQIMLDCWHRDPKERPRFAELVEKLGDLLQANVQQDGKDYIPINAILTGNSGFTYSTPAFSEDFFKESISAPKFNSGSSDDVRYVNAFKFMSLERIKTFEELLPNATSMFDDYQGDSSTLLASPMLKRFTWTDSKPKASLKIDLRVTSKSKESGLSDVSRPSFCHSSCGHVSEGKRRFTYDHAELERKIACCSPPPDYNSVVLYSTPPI

Compound | IC50 [1] | Selectivity [2] | Selectivity [3] | Selectivity [4] | Selectivity [5] | Selectivity [6] | Selectivity [7]
Cc1cnc(Nc2ccccn2)s1 | 1270 nM | – | – | – | – | – | –
Cc1ccc(Nc2ncc(-c3ccccc3)s2)nc1 | 19 nM | 570 | 5 | 1 | 0.3 | 70 | 220
COc1cccc(Nc2ncc(-c3ccccc3)s2)n1 | 3 nM | – | – | – | – | – | –
Clc1ccc(Nc2ncc(-c3ccccc3)s2)nc1 | 35 nM | > 580 | 6 | 1 | 0.1 | > 580 | > 580
Brc1cnc(Nc2ccccn2)s1 | 71 nM | – | – | – | – | – | –
Clc1cnc(Nc2ccccn2)s1 | 194 nM | – | – | – | – | – | –
Brc1cccc(Nc2ncc(-c3ccccc3)s2)n1 | 14 nM | 840 | 12 | 3 | 0.3 | 400 | 1620
c1ccc(-c2cnc(Nc3ccncc3)s2)cc1 | 259 nM | – | – | – | – | – | –
COc1cccnc1Nc1ncc(-c2ccccc2)s1 | 46 nM | – | – | – | – | – | –
O=C(Nc1ncc(-c2ccccc2)s1)c1ccccc1 | – | > 240 | 4 | 1 | – | 14 | 72
Cc1cccnc1Nc1ncc(-c2ccccc2)s1 | 13 nM | 1200 | 16 | 3 | 1 | 200 | 820
Cc1cccc(Nc2ncc(-c3ccccc3)s2)n1 | 10 nM | 760 | 8 | 3 | 0.3 | 210 | 600
CCCCN(C)c1ccc(/N=N/c2ncc([N+](=O)[O-])s2)c(C)c1 | – | > 130 | > 130 | 1 | – | > 130 | > 130
N#Cc1cnc(Nc2ccccn2)s1 | 36 nM | 678 | 30 | 4 | 68 | 107 | 214
COc1ccnc(Nc2ncc(-c3ccccc3)s2)c1 | 11 nM | – | – | – | – | – | –
c1ccc(Nc2ncc(-c3ccccc3)s2)cc1 | 124 nM | – | – | – | – | – | –
Cc1ccnc(Nc2ncc(-c3ccccc3)s2)c1 | 6 nM | 190 | 7 | 2 | 0.5 | 50 | 220
c1ccc(-c2cnc(Nc3ccccn3)o2)cc1 | 1880 nM | – | – | – | – | – | –
